Laboratory results as given in patent US20180334540A1, “Polymeric Derivative Of Macrolide Immunosuppressant” (Nippon Kayaku Kabushiki Kaisha, priority 2015, published 2018).

How the values were obtained:
[1] = Blood concentration profile in rats; format: in vivo; conditions: female, SD, whole blood, iv, tacrolimus in rat blood, 5 mg/kg once i.v. caudal vein, Examples: tacrolimus cut out from micelles
Description: Blood Concentration Profile in Rats
The results for Examples 1 to 4 and tacrolimus are presented in FIG. 3, and the results for Examples 5 to 8 and tacrolimus are presented in FIG. 4.

[2] = tested on: DA rats; conditions: rat, in vivo, iv, 20 mg/kg
Description: (§1) Female DA rats (Japan SLC, Inc.) were intravenously administered through the caudal vein with tacrolimus or Example 1, each once in the dosage indicated in Table 4 and Table 5, and an observation of general symptoms was made successively.

[3] = tested on: rats; conditions: cited from earlier work
[4] = tested on: DA rats; assay: Test on single-dose toxicity in rats
Description: as §1

For `C=CC[C@@H]1/C=C(\C)C[C@H](C)C[C@H](OC)[C@H]2O[C@@](O)(C(=O)C(=O)N3CCCC[C@H]3C(=O)O[C@H](/C(C)=C/[C@@H]3CC[C@@H](O)[C@H](OC)C3)[C@H](C)[C@@H](O)CC1=O)[C@H](C)C[C@@H]2OC` [Tacrolimus, tacrolimus], the AUC(0-inf) [1] was 5400 ng·h/mL, the Cmax [1] was 2430 ng/mL and the MRT inf [1] was 4.12 h. The Tmax [1] was 4.98 min, the half-life ([1]; read-out: T½ (converted)) was 7.51 h and the “general symptoms immediately after administration” value [2] was “a prone position, sedation, and a decrease in locomotor activity”. The “symptoms caused by intravenous administration” value [3] was “slight respiratory distress, a decrease in locomotor activity, a prone position, stereotyped behavior”, the “cerebral cortex pathology of dead rats” value ([4]; FIG. 7) was “neuronal vacuolation was recognized” and the lethal dose ([4]; single i.v. dose, female DA rats) was “lower than 20 mg/kg”. The death ([4]; single i.v. dose, tacrolimus 20 and 30 mg/kg, Example 1 20-50 mg/kg in terms of tacrolimus) was “half the animals in each group died”.
